Laboratory results from PubChem BioAssay AID1902 (Broad Institute, 2009).
Where “and” joins values, the source holds several entries; their conditions need not be identical. Equal values may be shown once. Calls of active or inactive are those of the source.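 The calls were made as follows: active = EC50 no more than a set limit of log units above the highest dose; inactive = the rest.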

Target: S. pyogenes SKKanGAS, kanamycin survival, BacTiterGlo, 6 h
Test: S. pyogenes SKKanGAS kanamycin growth inhibitors – SKKanGAS strain, luminescence, dose confirmation, streptokinase promoter inhibitor project, dose response (AID 1902);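 also: lower survival reflects blocked streptokinase promoter driving kanamycin resistance gene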

Structure (SMILES)	EC50
COc1ccc(OC)c(N=Cc2c(O)n(Cc3ccccc3)c(=S)[nH]c2=O)c1	> 15 µM (inactive)
CC/C(=C(\c1ccccc1)c1ccc(OCCN(C)C)cc1)c1ccccc1	6.17 µM
COc1ccc(N2CC(C(=O)Nc3nnc(SCc4cccnc4)s3)CC2=O)cc1 (stereo unspecified)	> 15 µM (inactive)
COc1ccc(/C=C/C(=O)NC(=S)NNC(=O)Cc2cccs2)cc1	1.23 µM
CCC(CC)c1nnc(NC(=O)c2ccc3ccccc3n2)s1	0.72 µM
CC1(C)CC(=O)C(C2C3=C(CC(C)(C)CC3=O)Oc3c(Br)cc(Br)cc32)=C(O)C1 (stereo unspecified)	4.06 µM
O=C(N/N=C/c1cc(Cl)cc([N+](=O)[O-])c1O)c1ccccc1NS(=O)(=O)c1cccs1	12 µM
CCCCCCCCCCCCN1[C@@H](CC(=O)O)c2cc(C(F)(F)F)ccc2S1(=O)=O	2.44 µM
COc1cccc(/C=N/NC(=O)c2c(C)nc3ccc(Cl)cn23)c1O	5.63 µM
Oc1ccc(Oc2ccc(Oc3ccc(O)cc3)cc2)cc1	5.25 µM
Nc1sc(-c2ccccc2)cc1C(=O)N/N=C/c1ccc(Cl)cc1	5.73 µM
Cc1ccc(C(=O)Nc2nnc(S(=O)(=O)N3CCN(c4ccc(F)cc4)CC3)s2)cc1	> 15 µM (inactive)
CCC(=O)N(CCC(Cc1ccccc1)c1ccc2c(c1)OCO2)Cc1ccccc1F (stereo unspecified)	6.5 µM
Cc1ccccc1NC(=O)C(=O)NC(C)CCc1ccccc1 (stereo unspecified)	> 15 µM (inactive)
C/C(=N\NC(=O)CSc1nc(C)[nH]c1[N+](=O)[O-])c1ccc(F)cc1	> 15 µM (inactive)
O=C(N/N=C/c1cc(O)ccc1Br)c1cccnc1	2.88 µM
CC[C@H]1OC(=O)[C@H](C)[C@@H](O[C@H]2C[C@@](C)(OC)[C@@H](O)[C@H](C)O2)[C@H](C)[C@@H](O[C@@H]2O[C@H](C)C[C@H](N(C)C)[C@H]2O)[C@](C)(O)C[C@@H](C)CN(C)[C@H](C)[C@@H](O)[C@]1(C)O	< 0.06 µM
COc1ccc(-c2cc3ncnc(Cl)c3s2)cc1	7.15 µM
C/C(Cl)=C\Cn1c(O)c(N=NC(N)=S)c2cc(Br)ccc21	1.36 µM
CC(=O)Oc1ccc(/C=N/NS(=O)(=O)c2ccccc2)cc1	> 15 µM (inactive)
Cc1cc(Oc2cnn(C(C)(C)C)c(=O)c2Cl)cc(C(C)C)c1	4.37 µM
COc1ccccc1CN1CC(C(=O)NCc2ncccc2C)CCC1=O (stereo unspecified)	> 15 µM (inactive)
Fc1ccc(CSc2nc3ccccc3[nH]2)c2ccccc12	6.11 µM
CC(C)C[C@H](NC(=O)c1[nH]cnc1C(=O)N[C@H](C)c1ccccc1)C(=O)OC(C)(C)C	6.02 µM
O=C1NC(=O)/C(=C\c2ccccc2OCc2ccccc2)S1	10.3 µM
O=C(NCc1ccccn1)Nc1ccc(F)c(Cl)c1	> 15 µM (inactive)

Structure (SMILES)	EC50
O=C(O)CN1C(=O)/C(=C\c2cc(Br)ccc2OCc2ccccc2Cl)SC1=S	2.08 µM
Cc1n[nH]c(=O)c2c(NC(=O)CSc3nnnn3-c3ccccc3)oc(C)c12	> 15 µM (inactive)
Oc1c(Cl)cc(Cl)cc1/C=N/NC(=S)NC1CC2C=CC1C2 (stereo unspecified)	0.177 µM
CCc1ccc(S(=O)(=O)/N=C2\C=C(Nc3cccc(C(=O)O)c3)C(=O)c3ccccc32)cc1	1.71 µM
Cc1nnc(SCC2=C(C(=O)O)N3C(=O)C(NC(=O)Cn4ncc(Cl)c4C)C3SC2)s1 (stereo unspecified)	< 0.06 µM
OC(CN=c1sc2ccccc2n1CC(O)COc1ccccc1)COc1ccccc1 (stereo unspecified)	6.28 µM
CCc1ccccc1OCC(=O)Nc1nc(-c2cccnc2)cs1	1.05 µM
COC(=O)C1(C(C[N+](=O)[O-])c2ccc(C)cc2)C(=O)NCC1c1ccco1 (stereo unspecified)	7.39 µM
NNc1nc(-c2ccccc2)c2cc(Br)ccc2n1	9.12 µM
O=C(COc1c(Cl)cccc1Cl)Nc1ccccc1N1CCCC1	6.24 µM
O=C(NC(NC(=S)Nc1c(Cl)cc(Cl)cc1Cl)C(Cl)(Cl)Cl)OCc1ccccc1 (stereo unspecified)	0.978 µM
CCOc1cc(/C=C\[N+](=O)[O-])ccc1OCC(=O)Nc1ccccc1C	9.44 µM
CCC(CC)NC(=O)c1oc2ccccc2c1COc1ccccc1	13 µM
O=C(O)CN1C(=O)/C(=C\c2cc(Br)ccc2OCc2ccc(Cl)cc2Cl)SC1=S	1.51 µM
Oc1ccc(Br)cc1/C=N/Nc1ncc(-c2ccccc2)cn1	1.7 µM
Cc1cccc(-c2nnc(NC(=O)c3ccc(Cl)cc3)o2)c1	0.097 µM
Cc1nnc(NC(=O)c2ccc(S(=O)(=O)N(C)Cc3ccccc3)cc2)o1	4.71 µM
COc1ccc(CNC(=O)c2c(C)oc3c2C(=O)c2ccccc2C3=O)cc1	0.81 µM
Oc1c(C=Nc2cccc3cccnc23)sc2ccccc12	3.94 µM
Cc1ccc(C(NC(=O)NC(C)c2ccccc2)C(Cl)(Cl)Cl)cc1F (stereo unspecified)	6.41 µM
Cc1ccc(Nc2nc3nonc3[nH]c2=O)cc1Cl	2.54 µM
Nc1ncc(Br)cc1S(=O)(=O)Nc1cc(C(F)(F)F)cc(C(F)(F)F)c1	6.39 µM
Cc1cccc(OCCn2c(NC(=O)c3ccco3)nc3ccccc32)c1	2.69 µM
COC(=O)/C=C1\SC(=Nc2ccc(Cl)c(Cl)c2)NC1=O	8.93 µM
Oc1cc2ccccc2cc1-c1n[nH]c(=S)o1	11.1 µM
COc1ccc(C(=O)NC(=S)N(Cc2ccccc2)Cc2ccccc2)cc1	0.674 µM

Structure (SMILES)	EC50
COc1ccccc1N1CC(C(=O)Nc2nnc(SCC(=O)N3CCCC3)s2)CC1=O (stereo unspecified)	> 15 µM (inactive)
Cc1ccc(-c2csc(NC(=O)c3ccc([N+](=O)[O-])o3)n2)cc1	3.42 µM
O=C(NC(c1ccc(Cl)cc1)c1cc(Cl)c2cccnc2c1O)c1cccnc1 (stereo unspecified)	0.278 µM
CC1(C)CC(=O)C2=C(C1)c1c(ccc3ccccc13)NC2c1cc([N+](=O)[O-])cc([N+](=O)[O-])c1O (stereo unspecified)	4.55 µM
CN(C)c1ccnc2c[cH-]cc12.[Fe].c1ccc(-[c-]2[c-](-c3ccccc3)[c-](-c3ccccc3)[c-](-c3ccccc3)[c-]2-c2ccccc2)cc1 (stereo unspecified)	1.96 µM and 0.56 µM
CCC(Oc1ccccc1)C(=O)Nc1ccccc1N1CCCCC1 (stereo unspecified)	3.3 µM
CC(=O)[C@]1(O)Cc2c(O)c3c(c(O)c2[C@@H](O[C@H]2C[C@H](N)[C@H](O)[C@H](C)O2)C1)C(=O)c1ccccc1C3=O	1.13 µM
CC(C)(C)c1cc(NCc2ccccn2)n2ncc(-c3ccccc3)c2n1	0.171 µM
O=C(NCc1ccccc1)C(=O)Nc1nc(-c2ccccc2)cs1	5.23 µM
O=[N+]([O-])c1cc(S(=O)(=O)Nc2ccccc2)ccc1N1CCN(c2ccccc2)CC1	7.21 µM
CCOC(=O)c1sc(NC(=O)CNCc2ccccn2)c(C(=O)OCC)c1C	< 0.06 µM
Cc1ccc(Nc2cc(C)nn2-c2nc(C)cc(C)n2)cc1	6.47 µM
Cc1nn(-c2ccccc2)c2sc(-c3n[nH]c(=S)o3)cc12	3.99 µM
N#Cc1ccccc1CN1C(=O)S/C(=C/c2cccn2-c2ccc(C(=O)O)cc2)C1=O	7.03 µM
CC(=O)c1cccc2c(O)c(C3=Nc4ccccc4C3=O)[nH]c12	6.32 µM
COCC1CCN(C(=O)c2ccc3oc(Cc4ccccc4)nc3c2)C1 (stereo unspecified)	> 15 µM (inactive)
CCCCC(=O)NC(c1ccco1)c1cc(Cl)c2cccnc2c1O (stereo unspecified)	2.03 µM
COc1cc(/C=C2\SC(=Nc3ccccc3)N(CCc3c[nH]c4ccccc34)C2=O)ccc1OC(C)C(=O)O (stereo unspecified)	1.42 µM
Cc1ccc(Oc2ccc3c(c2)C(=O)N(c2ccc(S(=O)(=O)Nc4nccs4)cc2)C3=O)cc1	3.06 µM
COc1cc(/C=N/NC(=O)c2nnn(-c3nonc3N)c2C(C)C)ccc1OCc1ccc(F)cc1	11.3 µM
N=c1c(-c2nc3ccccc3[nH]2)cc(C(=O)c2cccs2)nn1-c1ccccc1	1.89 µM
CC(C)c1c(C(=O)N/N=C/c2cccc(OCc3ccccc3)c2)nnn1-c1nonc1N	9.4 µM
COc1cc(OC)cc(C(=O)Nc2nnc(NC(=S)Nc3ccccc3)s2)c1	5.13 µM
O=C(N/N=C/c1sc2ccccc2c1O)c1ccccc1	0.929 µM
O=c1[nH]c2cc3c(cc2cc1CN(CCc1ccccc1)Cc1nnnn1CC1CCCO1)OCO3 (stereo unspecified)	> 15 µM (inactive)
COc1cc(C(=O)NC(=S)N(CCc2ccccc2)CCc2ccccc2)cc(OC)c1OC	0.328 µM

Structure (SMILES)	EC50
Cc1ccc(/C=C/C(=O)C2C(=O)c3ccccc3C2=O)cc1	1.62 µM
C[C@H](CCC(=O)NCC(=O)O)[C@H]1CC[C@H]2C3[C@H](O)C[C@@H]4C[C@H](O)CC[C@]4(C)[C@H]3C[C@H](O)[C@]12C (stereo partly specified)	> 15 µM (inactive)
COCCn1c(N)c(C(=O)Nc2sc3c(c2C(=O)OC)CCCC3)c2nc3ccccc3nc21	4.57 µM
FC(F)Sc1ccc(NC(=S)NC(c2ccccc2)c2ccccc2)cc1	2.28 µM
CCCCCCCCCCCCn1ccc(=N)cc1	4.1 µM
CC(C)=CCc1c(O)cc2oc3c(CC=C(C)C)c(O)c(O)c(CC=C(C)C)c3c(=O)c2c1O	0.828 µM
Cc1cc(C)cc(C(=O)Nc2nc3ccccc3[nH]2)c1	6.04 µM
CC[C@H]1OC(=O)[C@H](C)[C@@H](O[C@H]2C[C@@](C)(OC)[C@@H](O)[C@H](C)O2)[C@H](C)[C@@H](O[C@@H]2O[C@H](C)C[C@H](N(C)C)[C@H]2O)[C@](C)(O)C[C@@H](C)[C@@H]2N[C@@H](COCCOC)O[C@H]([C@H]2C)[C@]1(C)O	< 0.06 µM
COc1cccc(/C=C/c2ccc3cccc(O)c3n2)c1OC	0.887 µM
Oc1cccc2ccc(/C=C/c3c(F)cccc3Cl)nc12	0.43 µM
O=c1cc(-c2ccccc2)[nH]n1-c1nc2ccccc2s1	2.72 µM
Nc1nc(-c2ccccn2)nc(N)c1Cc1ccccc1F	15.3 µM
COc1ccccc1-c1nnc(NC(=O)CCS(=O)(=O)c2ccccc2)o1	> 15 µM (inactive)
Cc1ccc(-c2cc3nc(-c4ccc(Br)cc4)cc(N)n3n2)cc1	0.561 µM
N=C(N)c1ccc(/C=C/c2ccc(C(=N)N)cc2O)cc1	3.34 µM
O=C(COc1ccc([N+](=O)[O-])cc1)Nc1nc(-c2ccccn2)cs1	3.68 µM
CCc1nc(SCC(=O)N2c3ccccc3CC2C)c2c(C)c(C)sc2n1 (stereo unspecified)	8.61 µM
CCOC(=O)/C(=N/Nc1ccccc1)c1csc(Nc2ccccc2)n1	3.22 µM
O=C(NC(=S)NNC(=O)[C@H]1C[C@@H]1c1ccccc1)c1ccc(F)cc1	0.715 µM
Cc1nc(N/N=C\c2ccc3c(c2)OCO3)sc1C	4.63 µM
CCN1CCN(Cc2ccc(NC(=O)c3ccc(C)c(NC(=O)C(=O)c4c[nH]c5ccccc45)c3)cc2C(F)(F)F)CC1	3.34 µM
Cc1nn2c(COc3ccc(NC(=O)c4ccccc4)cc3)nnc2c2ccccc12	0.603 µM
Cc1ccc(/C=C/C(=O)NC(=S)Nc2ccc(S(=O)(=O)Nc3cc(C)on3)cc2)cc1	9.27 µM
